Assay results taken from US20060063828A1 (priority 2004, published 2006).

Assays:
VCAM-1 = assay: In Vitro VCAM-1 Assay (ELISA of VCAM-1 on TNF-α stimulated endothelial cells); type: cell-based; conditions: Endothelial cell; primary human aortic (HAEC) or pulmonary (HPAEC) endothelial cells, TNF-α (1 ng/ml), approximately 16 hours
Method: Cell Culture and compound dosing: Cultured primary human aortic (HAEC) or pulmonary (HPAEC) endothelial cells were obtained from Clonetics, Inc., and were used below passage 9. Cells were seeded in 96 well plates such that they would reach 90-95% confluency by the following day. On the following day the cells were stimulated with TNF-α (1 ng/ml) in the presence or absence of compounds dissolved in DMSO such that the final concentration of DMSO is 0.25% or less. To establish a dose curve for each compound, four concentrations in 2- to 5-fold increments were used. Cells were exposed to TNF-α and compounds for approximately 16 hours. The next day the cells were examined under microscope to score for visual signs of toxicity or cell stress.
Following 16 hr exposure to TNF-α and compound the media was discarded and the cells were washed once with Hanks Balanced Salt Solution (HBSS)/Phosphate buffered saline (PBS) (1:1). Primary antibodies against VCAM-1 (0.25 μg/ml in HBSS/PBS+5% FBS) were added and incubated for 30-60 minutes at 37° C. Cells were washed with HBSS/PBS three times, and secondary antibody Horse Radish Peroxidase (HRP)-conjugated goat anti-mouse IgG (1:500 in HBSS/PBS+5% FBS) were added and incubated for 30 minutes at 37° C. Cells were washed with HBSS/PBS four time and TMB substrate were added and incubated at room temperature in the dark until there was adequate development of blue color. The length of time of incubation was typically 5-15 minutes. 2N sulfuric acid was added to stop the color development and the data was collected by reading the absorbance on a BioRad ELISA plate reader at OD 450 nm. The results are expressed as IC50 values (the concentration (micromolar) of compound required to inhibit 50% of the maximal response of the control sample stimulated by TNF-α only).

| Structure (SMILES) | IC50 (VCAM-1) | melting point |
| --- | --- | --- |
| C=C(C(=O)c1ccc(C(=O)O)cc1)c1ccc(OC)c(-c2cccs2)c1 [Example 1, 4-[2-(4-Methoxy-3-thien-2-yl-phenyl)-acryloyl]-benzoic acid] | < 3000 nM | 163 to 164 °C |
| C=C(C(=O)c1ccc(C(=O)O)cc1)c1cc(-c2cnc3ccccc3c2)ccc1OC [Example 2, 4-[2-(2-Methoxy-5-quinolin-3-yl-phenyl)-acryloyl]-benzoic acid] | < 1000 nM | 232 °C (dec.) |
| C=C(C(=O)c1ccc(C(=O)O)cc1)c1cc(-c2cccn2C(=O)OC(C)(C)C)ccc1OC [Example 3, 2-{3-[1-(4-Carboxy-benzoyl)-vinyl]-4-methoxy-phenyl}-pyrrole-1-carboxylic acid tert-butyl ester] | < 3000 nM | 90 °C (dec.) |
| C=C(C(=O)c1ccc(C(=O)O)cc1)c1cc(-c2cccnc2)ccc1OC [Example 4, 4-[2-(2-Methoxy-5-pyridin-3-yl-phenyl)-acryloyl]-benzoic acid] | < 1000 nM | 215 °C (dec.) |
| C=C(C(=O)c1ccc(C(=O)O)cc1)c1cc(-c2cc3ccccc3s2)ccc1OC [Example 5, 4-[2-(5-Benzo[b]thien-2-yl-2-methoxy-phenyl)-acryloyl]-benzoic acid] | < 1000 nM | 240 to 242 °C (dec.) |
| C=C(C(=O)c1ccc(C(=O)O)cc1)c1c(OC)cc(-c2cccs2)cc1OC [Example 6] | < 1000 nM | > 250 °C |
| C=C(C(=O)c1c(Cl)cccc1Cl)c1cc(-c2cccs2)ccc1OC [Example 7, 1-(2,6-Dichloro-phenyl)-2-(2-methoxy-5-thien-2-yl-phenyl)-propenone] | < 1000 nM |  |
| C=C(C(=O)c1ccc(C(=O)OC)cc1)c1cc(-c2cccs2)ccc1OC [Example 9, 4-[2-(2-Methoxy-5-thien-2-yl-phenyl)-acryloyl]-benzoic acid methyl ester] | < 1000 nM | 126 to 128 °C |
| C=C(C(=O)c1ccc(C(=O)NC(CO)(CO)CO)cc1)c1cc(-c2cccs2)ccc1OC [Example 10, N-(2-Hydroxy-1,1-bis-hydroxymethyl-ethyl)-4-[2-(2-methoxy-5-thien-2-yl-phenyl)-acryloyl]-benzamide] | < 1000 nM | 144 to 146 °C |
| C=C(C(=O)c1ccc(C(=O)N2CCC(O)CC2)cc1)c1cc(-c2cccs2)ccc1OC [Example 11, 1-[4-(4-Hydroxy-piperidine-1-carbonyl)-phenyl]-2-(2-methoxy-5-thien-2-yl-phenyl)-propenone] | < 1000 nM | 197 to 199 °C |
| C=C(C(=O)c1cc(-c2cc3ccccc3s2)c(OC)cc1OC)c1ccc(C(=O)OC)cc1 [Example 12, 4-[1-(5-Benzo[b]thien-2-yl-2,4-dimethoxy-benzoyl)-vinyl]-benzoic acid methyl ester] | < 3000 nM | 184 to 186 °C |
| C=C(C(=O)c1ccc(F)cc1)c1cc(-c2cccs2)ccc1OC [Example 13, 1-(4-Fluoro-phenyl)-2-(2-methoxy-5-thien-2-yl-phenyl)-propenone] | < 3000 nM | 116 to 121 °C |
| C=C(C(=O)c1ccc(N2CCCC2)cc1)c1cc(-c2cccs2)ccc1OC [Example 14, 2-(2-Methoxy-5-thien-2-yl-phenyl)-1-(4-pyrrolidin-1-yl-phenyl)-propenone] | < 3000 nM | 187 to 190 °C |
| C=C(C(=O)c1ccc(OC)c(-c2cccs2)c1)c1ccc(C(=O)O)cc1 [Example 15, 4-[1-(4-Methoxy-3-thien-2-yl-benzoyl)-vinyl]-benzoic acid] | < 3000 nM | 204 to 205 °C |
| C=C(C(=O)c1cc(OC)c(OC)c(-c2cccs2)c1)c1ccc(C(=O)O)cc1 [Example 16, 4-[1-(3,4-Dimethoxy-5-thien-2-yl-benzoyl)-vinyl]-benzoic acid] | < 1000 nM | 159 to 160 °C |
| C=C(C(=O)c1ccc(O)cc1)c1cc(-c2cccs2)ccc1OC [Example 17, 1-(4-Hydroxy-phenyl)-2-(2-methoxy-5-thien-2-yl-phenyl)-propenone] | < 1000 nM |  |
| C=C(C(=O)c1ccc([N+](=O)[O-])cc1)c1cc(-c2cccs2)ccc1OC [Example 18, 2-(2-Methoxy-5-thien-2-yl-phenyl)-1-(4-nitro-phenyl)-propenone] | < 3000 nM | 160 to 162 °C |
| C=C(C(=O)c1ccc(NS(C)(=O)=O)cc1)c1cc(-c2cccs2)ccc1OC [Example 19, N-{4-[2-(2-Methoxy-5-thien-2-yl-phenyl)-acryloyl]-phenyl}-methane-sulfonamide] | < 1000 nM | 197 to 198 °C |

| Structure (SMILES) | IC50 (VCAM-1) | melting point |
| --- | --- | --- |
| C=C(C(=O)c1ccc(N(C)S(C)(=O)=O)cc1)c1cc(-c2cccs2)ccc1OC [Example 20, N-{4-[2-(2-Methoxy-5-thien-2-yl-phenyl)-acryloyl]-phenyl}-N-methyl-methanesulfonamide] | < 1000 nM |  |
| C=C(C(=O)c1ccc(NC(=O)C(C)C)cc1)c1cc(-c2cccs2)ccc1OC [Example 21, N-{4-[2-(2-Methoxy-5-thien-2-yl-phenyl)-acryloyl]-phenyl}-isobutyramide] | < 1000 nM | 155 to 158 °C |
| C=C(C(=O)c1ccc(Nc2ncccn2)cc1)c1cc(-c2cccs2)ccc1OC [Example 22, 2-(2-Methoxy-5-thien-2-yl-phenyl)-1-[4-(pyrimidin-2-ylamino)-phenyl]-propenone] | < 1000 nM | 154 to 155 °C |
| C=C(C(=O)c1ccc(Nc2ncccc2C(=O)OCC)cc1)c1cc(-c2cccs2)ccc1OC [Example 23, 2-{4-[2-(2-Methoxy-5-thien-2-yl-phenyl)-acryloyl]-phenylamino}-nicotinic acid ethyl ester] | < 3000 nM | 149 to 151 °C |
| C=C(C(=O)c1ccc(Nc2ncccc2C(=O)O)cc1)c1cc(-c2cccs2)ccc1OC [Example 24, 2-{4-[2-(2-Methoxy-5-thien-2-yl-phenyl)-acryloyl]-phenylamino}-nicotinic acid] | < 1000 nM | 234 °C (dec.) |
| C=C(C(=O)c1ccc(Nc2cnccn2)cc1)c1cc(-c2cccs2)ccc1OC [Example 25, 2-(2-Methoxy-5-thien-2-yl-phenyl)-1-[4-(pyrazin-2-ylamino)-phenyl]-propenone] | < 1000 nM | 178 to 182 °C |
| C=C(C(=O)c1ccc(NS(=O)(=O)c2c(C)noc2C)cc1)c1cc(-c2cccs2)ccc1OC [Example 26, 3,5-Dimethyl-isoxazole-4-sulfonic acid {4-[2-(2-methoxy-5-thien-2-yl-phenyl)-acryloyl]-phenyl}-amide] | < 3000 nM | 176 to 179 °C |
| C=C(C(=O)c1ccc(NC(=O)c2ccno2)cc1)c1cc(-c2cccs2)ccc1OC [Example 27, Isoxazole-5-carboxylic acid {4-[2-(2-methoxy-5-thien-2-yl-phenyl)-acryloyl]-phenyl}-amide] | < 1000 nM | 132.5 to 133.5 °C |
| C=C(C(=O)c1ccc(NC(=O)c2cccn2C)cc1)c1cc(-c2cccs2)ccc1OC [Example 28, 1-Methyl-1H-pyrrole-2-carboxylic acid {4-[2-(2-methoxy-5-thien-2-yl-phenyl)-acryloyl]-phenyl}-amide] | < 1000 nM | 165 to 168 °C |
| C=C(C(=O)c1c(C)cccc1C)c1cc(-c2cccs2)ccc1OC [Example 29, 1-(2,6-Dimethyl-phenyl)-2-(2-methoxy-5-thien-2-yl-phenyl)-propenone] | < 1000 nM |  |
| C=C(C(=O)c1c(OC)ccc(-c2cccs2)c1OC)c1ccccc1OC [Example 31, 1-(2,6-Dimethoxy-3-thien-2-yl-phenyl)-2-(2-methoxy-phenyl)-propenone] | < 1000 nM |  |
| C=C(C(=O)c1c(C)cccc1Cl)c1ccc(C(=O)O)cc1-c1cccs1 [Example 32, 4-[1-(2-Chloro-6-methyl-benzoyl)-vinyl]-3-thien-2-yl-benzoic acid] | < 1000 nM | 88 °C (dec.) |
| C=C(C(=O)c1c(C)cccc1C)c1ccccc1-c1cccs1 [Example 38, 1-(2,6-Dimethyl-phenyl)-2-(2-thien-2-yl-phenyl)-propenone] | < 10000 nM |  |
| C=C(C(=O)c1c(C)cccc1C)c1ccccc1-c1cccnc1OC [Example 39, 1-(2,6-Dimethyl-phenyl)-2-[2-(2-methoxy-pyridin-3-yl)-phenyl]-propenone] | < 6000 nM |  |
| C=C(C(=O)c1cc(-c2cccs2)ccc1OC)c1ccc([N+](=O)[O-])cc1 [Example 52, 1-(2-Methoxy-5-thien-2-yl-phenyl)-2-(4-nitro-phenyl)-propenone] | < 3000 nM |  |
| C=C(C(=O)c1cc(-c2cccs2)ccc1OC)c1ccc(C(=O)O)cc1 [Example 54, 4-[1-(2-Methoxy-5-thien-2-yl-benzoyl)-vinyl]-benzoic acid] | < 1000 nM |  |
| C=C(C(=O)c1ccc(C(=O)O)cc1)c1cc(-c2cccs2)ccc1OC(C)C [Example 59, 4-[2-(2-Isopropoxy-5-thien-2-yl-phenyl)-acryloyl]-benzoic acid] | < 1000 nM |  |
